Our source for the cytotoxicity values is ChEMBL document CHEMBL3507680, “University of Dundee, Gates Library screen for HepG2 cell viability”.

Each structure is given as a SMILES string.

This series can be described thus: Human HepG2 cell viability assay in 384 well format. It is filed as toxicity, cell-based. Set-up: dose 125 nL, time 70.5 hour; concentration not given beside the values. Conditions: HepG2 cells, read-out: Inhibition.
Take `Cc1cccc(C(=O)NCc2cccnc2N(C)C)n1`: the cytotoxicity at 70.5 h was determined as 1.42%.

On to `CNC(=O)[C@H]1CO[C@H]2CCN(Cc3ccc4ccccc4n3)C[C@H]2C1`, for which the cytotoxicity at 70.5 h was -0.28%.

Turning to `CCCn1nnnc1COc1cc(OC)ccc1C(=O)OC`, the cytotoxicity at 70.5 h was -7.14%.

As for `C1CN(CC2CCOCC2)Cc2c(CN3CCOCC3)nnn2C1`, the cytotoxicity at 70.5 h was determined as 6.54%.

For `Cn1cc(CN2CCC3(CC2)CC(c2ccncc2)C(=O)N3)cn1` (centres undefined), the cytotoxicity at 70.5 h was -10.1%.

For `CCc1nnc(CN2CCc3[nH]c(-c4ccc(OC)cc4)nc3C2)o1`, the cytotoxicity at 70.5 h was -9.04%.

Take `Cc1cc(C)n(CC(C)CNC(=O)[C@@H](C)NC(=O)OC(C)(C)C)n1` (some centres undefined): the cytotoxicity at 70.5 h is -27.5%.

On to `CC1CCc2nc(O)c(C(=O)NCCN(C)C)cc2C1` (centres undefined), for which the cytotoxicity at 70.5 h was -18.1%.

Take `C=C(C)Cn1c(=O)nc(N)c2c(-c3ccc(OC)cc3)csc21`: the cytotoxicity at 70.5 h is -9.64%.

Turning to `COC[C@@]12CC[C@@H](N3CCOCC3)C[C@H]1CCN(c1nc(CO)cs1)C2`, the cytotoxicity at 70.5 h worked out at 10.8%.

Take `CCS(=O)(=O)N(C)C1CCN(C(=O)c2cccc(Cl)c2)CC1`: the cytotoxicity at 70.5 h is -4.92%.

In the case of `O=C1CCCCCN1CCC(=O)N1CCCC(c2ccn[nH]2)C1` (centres undefined), the cytotoxicity at 70.5 h is -9.01%.

`CCCc1nnc(N2CCN(c3ccccc3OCC)CC2)o1`: the cytotoxicity at 70.5 h is -4.12%.

In the case of `C1CCC(CNC2CCSCC2)(N2CCOCC2)CC1`, the cytotoxicity at 70.5 h came out at 3.74%.

As for `O=C(c1cccnc1)N1CCN(CC2CC2)c2ncccc2C1`, the cytotoxicity at 70.5 h worked out at 0.755%.

On to `c1cc(-c2nnc(C3CCCN(CC4CCCCC4)C3)o2)ccn1` (centres undefined), for which the cytotoxicity at 70.5 h was -5.12%.

For `CN(C)CCOC[C@H]1CC[C@H]2[C@H](CCN2C(=O)c2ccoc2)O1`, the cytotoxicity at 70.5 h was -12.4%.

Regarding `CC(C)c1cccc(-n2cc(O)c(C(N)=O)n2)c1`, the cytotoxicity at 70.5 h turned out to be 25.8%.

With `CC(C)c1cc(C(=O)NCC2(C(N)=O)CCOCC2)nn1C(C)(C)C`, the cytotoxicity at 70.5 h is -4.75%.

Turning to `Cc1cc(C)c(-n2cc(CCO)cn2)cc1C`, the cytotoxicity at 70.5 h came to 22.1%.

Turning to `Cc1cc(C)c(CNC(=O)C2CCN(c3cnccn3)CC2)c(=O)[nH]1`, the cytotoxicity at 70.5 h was -3.48%.

With `CN1CCN(c2ncnc3c2c(C(=O)NC2CC2)c2ccccn23)CC1`, the cytotoxicity at 70.5 h was determined as 5.64%.

On to `Cc1cc(C)nc(N(C)CCN(C)C2CCCC2)n1`, for which the cytotoxicity at 70.5 h is -6.11%.

As to `CS(=O)(=O)c1cncnc1C1CCCNC1` (centres undefined), the cytotoxicity at 70.5 h is -8.78%.

Turning to `COCCN1CCC2(CCN(Cc3cccs3)CC2)C1=O`, the cytotoxicity at 70.5 h worked out at 16.2%.

Turning to `CC(C)CN1C(=O)C2(CCN(Cc3ccoc3)C2)c2ccccc21` (centres undefined), the cytotoxicity at 70.5 h is -14.2%.

For `CN(Cc1ccco1)[C@@H]1CN(Cc2cccs2)C[C@@H]2CCCO[C@@H]21`, the cytotoxicity at 70.5 h is -6.25%.

On to `COc1cccc(CC(=O)N2CCC3(CC2)OCCCC3O)c1OC` (centres undefined), for which the cytotoxicity at 70.5 h was -7.1%.

Regarding `COCc1nc(N(C)C)ncc1C(=O)NC(C)C`, the cytotoxicity at 70.5 h was 12.7%.

On to `CSc1ncnc(NCc2ccccc2F)c1C#N`, for which the cytotoxicity at 70.5 h was 23.1%.

Take `COCC1c2c(cnn2CC2CC2)CCN1Cc1ccc(C)o1` (centres undefined): the cytotoxicity at 70.5 h was -8.01%.

On to `COc1cc(C(=O)N2Cc3cnc(C(C)(C)C)nc3C2)ccn1`, for which the cytotoxicity at 70.5 h was -2.74%.

With `Cc1nc(N(C)C)nc2c1COCC21CCN(C(=O)NCC(C)C)C1` (centres undefined), the cytotoxicity at 70.5 h is -7.67%.

As for `CN(CC(N)=O)CC(=O)N1CC=C(c2ccccc2)CC1`, the cytotoxicity at 70.5 h is -10.6%.

As to `CN1CCN(Cc2cccnc2)C(=O)C12CCN(S(C)(=O)=O)CC2`, the cytotoxicity at 70.5 h was -5.92%.

Regarding `COCc1c(C(=O)N2CCCC(C(=O)c3nccn3C)C2)noc1C` (centres undefined), the cytotoxicity at 70.5 h was -1.47%.

As for `CCS(=O)(=O)c1ncc(CN(C)Cc2ccccc2Cl)n1CCOC`, the cytotoxicity at 70.5 h was -2.37%.

Regarding `CO[C@@H]1CCN(Cc2nccn2C)[C@H]1Cc1cccnc1`, the cytotoxicity at 70.5 h was 12.4%.

Turning to `O=C(Nc1cccnc1)[C@H]1C[C@@H]2CN(C(=O)NC3CCCC3)C[C@H]1O2`, the cytotoxicity at 70.5 h is -1.2%.

Take `CCOC(=O)C1CCN(C(=O)c2cc(F)ccc2-n2cnnn2)CC1`: the cytotoxicity at 70.5 h was found to be 3.28%.

`CC(C)CC(=O)NS(=O)(=O)c1ccc2c(c1)OCCCO2`: the cytotoxicity at 70.5 h is -8.04%.

Turning to `CCc1nnsc1C(=O)NCCc1nnc2n1CCC2`, the cytotoxicity at 70.5 h is -7.69%.

Take `O=C(CNc1cc(-n2cnnn2)ccc1F)Nc1cc(F)ccc1F`: the cytotoxicity at 70.5 h was -96.7%.

Take `Cc1c(CN2CC[C@@H](N3CCC(O)CC3)[C@H](O)C2)[nH]c2ccc(Cl)cc12`: the cytotoxicity at 70.5 h was -0.941%.

As for `COc1ccccc1OC1(C(=O)O)CCN(c2cc(C)nc(C)c2)CC1`, the cytotoxicity at 70.5 h is -0.575%.

Consider `Cc1nc(-c2ccsc2)ccc1C(=O)NCCC(=O)N1CCCC1`, for which the cytotoxicity at 70.5 h was -3.29%.

As for `Clc1ccccc1OC1CCN(CC2CCOC2)CC1` (centres undefined), the cytotoxicity at 70.5 h came out at 3.25%.

`CC(C)(C)n1ncc2c1NC(=O)CC2c1c(F)cccc1F` (centres undefined): the cytotoxicity at 70.5 h is -14.5%.

Consider `O=C(O)c1ccc2c(c1)C1(CCCCC1)CN2C(=O)c1ccnnc1`, for which the cytotoxicity at 70.5 h is -4.43%.

Turning to `c1cnc(-c2nc(CN3CCOC(Cn4cncn4)C3)cs2)nc1` (centres undefined), the cytotoxicity at 70.5 h amounted to 11.7%.

As for `CCN(C)c1cc(CNC(=O)CNC(=O)CC2CCCCC2)ccn1`, the cytotoxicity at 70.5 h is -16.4%.

`O=C(CCc1ccncc1)NCCOc1ncc(Cl)cc1Cl`: the cytotoxicity at 70.5 h was -6.13%.

Consider `CS(=O)(=O)c1ccc(NC(=O)CSC(F)(F)F)cn1`, for which the cytotoxicity at 70.5 h was 20.8%.

`CCn1cc(CN2CCCn3nc(CNC(=O)C4CCC4)cc3C2)cn1`: the cytotoxicity at 70.5 h is -9%.

`Cc1cc(C)cc(OCCN(C)C(=O)NC(C)c2nncn2C)c1` (centres undefined): the cytotoxicity at 70.5 h is 17.7%.

For `O=C1COC2(CCN(C(=O)c3ccco3)CC2)CN1Cc1cccnc1`, the cytotoxicity at 70.5 h was -8.01%.

Regarding `CS(=O)(=O)CCSCc1cc(F)cc2cccnc12`, the cytotoxicity at 70.5 h is -16.7%.

For `Fc1ccccc1CN1CCC[C@@H](Cn2nnc(-c3cccs3)n2)C1`, the cytotoxicity at 70.5 h is -3.35%.

Regarding `COCCn1ccnc1C1CCCN(C(=O)c2cc(F)cc(F)c2)C1` (centres undefined), the cytotoxicity at 70.5 h is -3.01%.

For the compound `COc1c(CNC2(c3noc(C)n3)CCC2)c(C(C)C)nn1C`, the cytotoxicity at 70.5 h was -0.972%.

Consider `O=C(C1CC(=O)N(C2CC2)C1)N1CCN(CCn2cccc2)CC1` (centres undefined), for which the cytotoxicity at 70.5 h is -1.53%.

With `COc1ccccc1-c1ccc(C2CCCN(C(C)=O)C2)nc1` (centres undefined), the cytotoxicity at 70.5 h is -0.199%.

Turning to `CN(Cc1cnn(C)c1)C1CCN(c2cccc(-c3cscn3)c2)CC1`, the cytotoxicity at 70.5 h was -2.02%.

As to `CNC(=O)C1(c2cnccn2)CCCN1C(=O)c1cccc(F)c1` (centres undefined), the cytotoxicity at 70.5 h turned out to be 20.4%.

On to `CN1CCN(C(=O)CCc2cccnc2)c2ccc(F)cc21`, for which the cytotoxicity at 70.5 h amounted to 1.2%.

As to `Cc1cc(=O)[nH]c(NCCNC(=O)c2ccccc2N2CCCC2)n1`, the cytotoxicity at 70.5 h was 32.3%.

In the case of `CCCC(=O)n1ccn(S(=O)(=O)c2ccc(C)cc2)c1=O`, the cytotoxicity at 70.5 h was -14.8%.

`Cn1cnc2c1C(C(=O)N1CCOCC1)N(C(=O)c1ccccc1)CC2` (centres undefined): the cytotoxicity at 70.5 h was -4.08%.

Turning to `CCOc1ccc(Cl)c(C(=O)N2CCCC(c3cc(C)[nH]n3)C2)n1` (centres undefined), the cytotoxicity at 70.5 h was -2.21%.

Take `CC(C)c1nccc(-c2nccn2CCS(C)(=O)=O)n1`: the cytotoxicity at 70.5 h was -16.1%.

Consider `CN(C(=O)c1ccncc1Cl)c1ccccc1S(C)(=O)=O`, for which the cytotoxicity at 70.5 h is 12.1%.

As to `CSc1nnc(C2CCN(C(=O)N3CCOCC3)CC2)n1C(C)C`, the cytotoxicity at 70.5 h worked out at 7.97%.

As to `Cc1cnn(CC2CCCCN2C(=O)c2ccc3c(c2)COC3)c1` (centres undefined), the cytotoxicity at 70.5 h stood at 4.39%.

Turning to `CC(O)CN1CCN(C(=O)c2ccc(N(C)C)nc2)CC1` (centres undefined), the cytotoxicity at 70.5 h came out at 12%.

As to `COCCCNC(=O)Nc1cccc2ncccc12`, the cytotoxicity at 70.5 h turned out to be 30.8%.

On to `CN(C)CCOCC1CN(C(=O)c2cccn2C)Cc2ccnn2C1` (centres undefined), for which the cytotoxicity at 70.5 h was determined as 8.36%.

Regarding `CCC1CN(c2nnc(C)c(C)c2C#N)CCO1` (centres undefined), the cytotoxicity at 70.5 h worked out at 8.71%.

`O=C(c1cnc2n1CCCC2)N1CCCC1`: the cytotoxicity at 70.5 h was -2.75%.

In the case of `CS(=O)(=O)N1CCO[C@@H]2CN(Cc3ccc(F)cc3)C[C@@H]2C1`, the cytotoxicity at 70.5 h was -6.95%.

Take `O=C(Nc1nncs1)N1CCCN(C2CCCCC2)CC1`: the cytotoxicity at 70.5 h was -12.6%.

`O=C1NCC2(CCCN(C(=O)c3ccc4c(c3)CCCO4)CC2)O1` (centres undefined): the cytotoxicity at 70.5 h is 4.55%.

`CC(C)C(=O)N1CCN(c2ncnc3cc4c(cc23)OCCO4)CC1`: the cytotoxicity at 70.5 h is -1.97%.

As to `CCN1CCC2(CC1)CC(NC(=O)N(C)C)c1cc(C)ccc12` (centres undefined), the cytotoxicity at 70.5 h came out at 1.47%.

Turning to `CC(=O)N(C)Cc1ncn2c1CN(C(=O)CC1CC1)CCC2`, the cytotoxicity at 70.5 h is -9.44%.

Regarding `O=C1N(Cc2cccnc2)CCC12CCCN(c1ncc(F)cn1)C2` (centres undefined), the cytotoxicity at 70.5 h was -3.96%.

Take `c1cc(CN2CCO[C@@H]3CNC[C@@H]32)co1`: the cytotoxicity at 70.5 h came to 3.81%.

In the case of `CC(C(=O)N1CCN(C(=O)c2ccc(F)cc2F)CC1)n1ccnc1` (centres undefined), the cytotoxicity at 70.5 h is -4.77%.

On to `CC(C)c1nccn1C1CCCN(C(=O)c2cc(C3CC3)on2)C1` (centres undefined), for which the cytotoxicity at 70.5 h was -3.7%.

For `COCC(=O)Nc1ccc2c(c1)C1(CCOCC1)CN2CCF`, the cytotoxicity at 70.5 h was 16.5%.

On to `CCNc1cc2c(nn1)CCN(C(=O)c1ccc(-n3cnnc3)cc1)C2`, for which the cytotoxicity at 70.5 h is -0.933%.

On to `Cn1ccc(C(=O)N2CCCC(n3cncn3)C2)cc1=O` (centres undefined), for which the cytotoxicity at 70.5 h was -10.3%.

On to `Cc1cc(CNC(=O)c2cc(COc3cncc(Cl)c3)on2)n[nH]1`, for which the cytotoxicity at 70.5 h turned out to be 16%.

For the compound `COC(=O)CN(C(=O)c1cc(C)c(F)cc1F)c1cccc(C)n1`, the cytotoxicity at 70.5 h was -5.14%.

Consider `CCC(CN1CCCC1)NC(=O)Cc1c(C)[nH]c2cc(C)cc(C)c12` (centres undefined), for which the cytotoxicity at 70.5 h is -4.71%.

Take `Cc1nn(C)c(C)c1NC(=O)CN1CCCC1c1noc(C(C)C)n1` (centres undefined): the cytotoxicity at 70.5 h is -5%.

With `CN(C)c1ncc(CN2CCCC(Nc3ccc4c(c3)OCCO4)C2)s1` (centres undefined), the cytotoxicity at 70.5 h is -12.3%.

Consider `CCCc1noc(C2CCCCN2C(=O)CCc2cnn(C)c2)n1` (centres undefined), for which the cytotoxicity at 70.5 h was -0.695%.

For the compound `CN(C)S(=O)(=O)N(C)C(c1cccc(F)c1)c1ccccn1` (centres undefined), the cytotoxicity at 70.5 h was -19.9%.

For `Cc1nc(CN(C)C2CCCN(c3cccnn3)C2)no1` (centres undefined), the cytotoxicity at 70.5 h was determined as 17.1%.
